This is an account of results in patent US9828369B2, “Isoquinoline derivatives useful as inhibitors of diacylglyceride O-acyltransferase 2” (Merck Sharp & Dohme Corp., priority 2014, dated 2017).

The target of this experiment is hDGAT2 (Homo sapiens (Human), UniProt Q96PD7). The experiment is described as follows: DGAT2 enzymatic activity assay (triolein formation, LC/MS/MS). The note with it: read-out: IC50 values for inhibition of DGAT2; membrane prep of Sf-9 cells expressing hDGAT2; 25 μM diolein, 10 μM oleoyl-CoA; room temperature; triolein by LC/MS/MS.
Chain of hDGAT2 (Q96PD7 whole entry): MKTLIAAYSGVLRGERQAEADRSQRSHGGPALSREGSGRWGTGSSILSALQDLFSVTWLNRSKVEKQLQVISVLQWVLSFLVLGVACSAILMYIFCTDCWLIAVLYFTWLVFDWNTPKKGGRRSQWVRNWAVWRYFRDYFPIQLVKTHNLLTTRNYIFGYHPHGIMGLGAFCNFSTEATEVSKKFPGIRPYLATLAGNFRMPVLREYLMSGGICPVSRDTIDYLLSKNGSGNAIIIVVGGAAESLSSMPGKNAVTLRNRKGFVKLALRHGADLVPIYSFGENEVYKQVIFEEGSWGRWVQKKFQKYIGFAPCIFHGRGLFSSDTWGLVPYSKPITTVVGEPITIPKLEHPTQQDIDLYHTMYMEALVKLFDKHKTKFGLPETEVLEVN

As a reminder, the IC50 is the point on the concentration scale where inhibition reaches its midpoint. As to `COCCCc1ccc(CNC(=O)Nc2cccc(Cl)c2Cl)c2cnccc12` [Example 159, 1-(2,3-dichlorophenyl)-3-((5-(3-methoxypropyl)isoquinolin-8-yl)methyl)urea], the 50% inhibitory concentration (IC50) turned out to be 0.478 µM.

`COc1cccc(-c2ccc(CNC(=O)c3ccc(-c4cccc(F)c4)cc3)c3cnccc23)c1` [Example 88, 3′-fluoro-N-((5-(3-methoxyphenyl)isoquinolin-8-yl)methyl)-[1,1′-biphenyl]-4-carboxamide]: the IC50 turned out to be 1.56 µM.

Regarding `COc1cccc(-c2ccc(CNC(=O)C(C)(C)Oc3cc(C(F)(F)F)ccn3)c3cnccc23)c1` [Example 114, N-((5-(3-methoxyphenyl)isoquinolin-8-yl)methyl)-2-methyl-2-((4-(trifluoromethyl)pyridin-2-yl)oxy)propanamide], the IC50 worked out at 6.11 µM.

Consider `COc1cccc(-c2ccc(CNC(=O)C3CC3(F)c3ccccc3)c3cnccc23)c1` (stereo not drawn) [Example 109, 2-fluoro-N-((5-(3-methoxyphenyl)isoquinolin-8-yl)methyl)-2-phenylcyclopropanecarboxamide], for which the IC50 was determined as 0.696 µM.

Regarding `COc1ccc([C@H]2C[C@@H]2C(=O)NCc2ccc(-c3cccc(OC)c3)c3ccncc23)cc1` [Example 23, (1S,2S)-2-(4-methoxyphenyl)-N-((5-(3-methoxyphenyl)isoquinolin-8-yl)methyl)cyclopropanecarboxamide], the IC50 was determined as 9.96 µM.

As to `COc1cccc(-c2ccc(CNC(=O)[C@H]3C[C@@H]3c3nc(C)no3)c3cnccc23)c1` (relative stereo) [Example 108, (trans)-N-((5-(3-methoxyphenyl)isoquinolin-8-yl)methyl)-2-(3-methyl-1,2,4-oxadiazol-5-yl) cyclopropanecarboxamide], the IC50 is 0.589 µM.

With `COc1cccc(-c2ccc(CNC(=O)C(C)(C)Oc3ccc(C(F)(F)F)cn3)c3cnccc23)c1` [Example 112, N-((5-(3-methoxyphenyl)isoquinolin-8-yl)methyl)-2-methyl-2-((5-(trifluoromethyl)pyridin-2-yl)oxy)propanamide], the concentration for half-maximal inhibition (IC50) amounted to 1.16 µM.

`COc1cccc(-c2ccc(CNC(=O)c3ccncc3-c3ccccc3)c3cnccc23)c1` [Example 77, N-((5-(3-methoxyphenyl)isoquinolin-8-yl)methyl)-3-phenylisonicotinamide]: the IC50 turned out to be 1.22 µM.

Turning to `COC(=O)c1cccc(-c2ccc(CNC(=O)c3ccnn3C)c3cnccc23)c1` [Example 13, methyl 3-(8-((1-methyl-1H-pyrazole-5-carboxamido)methyl)isoquinolin-5-yl)benzoate], the IC50 worked out at 1.23 µM.

With `COc1cccc(-c2ccc(CNC(=O)C3CC3c3ccccn3)c3cnccc23)c1` (stereo not drawn) [Example 105, N-((5-(3-methoxyphenyl)isoquinolin-8-yl)methyl)-2-(pyridin-2-yl)cyclopropanecarboxamide], the IC50 came out at 7.45 µM.

As to `COc1cccc(-c2ccc(CNC(=O)c3cncc(C(F)(F)F)c3)c3cnccc23)c1` [Example 119, N-((5-(3-methoxyphenyl)isoquinolin-8-yl)methyl)-5-(trifluoromethyl)nicotinamide], the IC50 was found to be 5.89 µM.

Regarding `COc1cccc(-c2ccc(CNC(=O)CN3CCN(c4ccccc4)CC3)c3cnccc23)c1` [Example 93, N-((5-(3-methoxyphenyl)isoquinolin-8-yl)methyl)-2-(4-phenylpiperazin-1-yl)acetamide], the IC50 came out at 6.67 µM.

In the case of `COc1cccc(-c2ccc(CNC(=O)Cc3ccccc3C(F)(F)F)c3cnccc23)c1` [Example 51, N-((5-(3-methoxyphenyl)isoquinolin-8-yl)methyl)-2-(2-(trifluoromethyl)phenyl)acetamide], the IC50 came out at 1.75 µM.

`COc1cccc(-c2ccc(CNC(=O)Cc3cc(F)c(F)c(F)c3)c3cnccc23)c1` [Example 60, N-((5-(3-methoxyphenyl)isoquinolin-8-yl)methyl)-2-(3,4,5-trifluorophenyl)acetamide]: the half-maximal inhibitory concentration (IC50) came to 2.14 µM.

Take `COc1cccc(-c2ccc(CNC(=O)C3CCCN(c4ccccn4)C3)c3cnccc23)c1` (stereo not drawn) [Example 41, N-((5-(3-methoxyphenyl)isoquinolin-8-yl)methyl)-1-(pyridin-2-yl)piperidine-3-carboxamide]: the half-inhibitory concentration (IC50) amounted to 7.78 µM.

Regarding `COc1cccc(-c2ccc(CNC(=O)c3cnn(Cc4ccccc4)c3)c3cnccc23)c1` [Example 115, 1-benzyl-N-((5-(3-methoxyphenyl)isoquinolin-8-yl)methyl)-1H-pyrazole-4-carboxamide], the 50% inhibitory concentration (IC50) is 3.39 µM.

Consider `COc1cccc(-c2ccc(CNC(=O)CC3(c4ccccc4)CCN(C(=O)OC(C)(C)C)C3)c3cnccc23)c1` (stereo not drawn) [Example 95, tert-butyl 3-(2-(((5-(3-methoxyphenyl)isoquinolin-8-yl)methyl)amino)-2-oxoethyl)-3-phenylpyrrolidine-1-carboxylate], for which the IC50 is 1.31 µM.

In the case of `COc1cccc(-c2ccc(CNC(=O)C3CC3c3cccnc3)c3cnccc23)c1` (stereo not drawn) [Example 104, N-((5-(3-methoxyphenyl)isoquinolin-8-yl)methyl)-2-(pyridin-3-yl)cyclopropanecarboxamide], the 50% inhibitory concentration (IC50) turned out to be 0.483 µM.

In the case of `COc1cccc(-c2ccc(CNC(=O)c3cccc(-n4cccn4)c3)c3cnccc23)c1` [Example 34, N-((5-(3-methoxyphenyl)isoquinolin-8-yl)methyl)-3-(1H-pyrazol-1-yl)benzamide], the IC50 is 7.36 µM.

Regarding `COc1cccc(-c2ccc(CNC(=O)C(F)c3ccc(C(F)(F)F)cc3)c3cnccc23)c1` (stereo not drawn) [Example 124, 2-fluoro-N-((5-(3-methoxyphenyl)isoquinolin-8-yl)methyl)-2-(4-(trifluoromethyl)phenyl)acetamide], the IC50 amounted to 2.33 µM.

On to `COc1cccc(-c2ccc(CNC(=O)c3ccc4c(c3)OCCO4)c3cnccc23)c1` [Example 36, N-((5-(3-methoxyphenyl)isoquinolin-8-yl)methyl)-2,3-dihydrobenzo[b][1,4]dioxine-6-carboxamide], for which the IC50 is 3.01 µM.

Take `CCOc1cccc(-c2ccc(CNC(=O)C3CC3c3ccccc3)c3cnccc23)c1` (stereo not drawn) [Example 15, N-((5-(3-ethoxyphenyl)isoquinolin-8-yl)methyl)-2-phenylcyclopropanecarboxamide]: the IC50 stood at 0.115 µM.

As to `COc1cccc(-c2ccc(CNC(=O)Cc3cccc(S(C)(=O)=O)c3)c3cnccc23)c1` [Example 56, N-((5-(3-methoxyphenyl)isoquinolin-8-yl)methyl)-2-(3-(methylsulfonyl)phenyl)acetamide], the IC50 was 1.64 µM.

For the compound `COc1cccc(-c2ccc(CNC(=O)C(C)c3ccc4cc(OC)ccc4c3)c3cnccc23)c1` (stereo not drawn) [Example 143, 2-(6-methoxynaphthalen-2-yl)-N-((5-(3-methoxyphenyl)isoquinolin-8-yl)methyl)propanamide], the IC50 worked out at 0.197 µM.

`COc1cccc(-c2ccc(CNC(=O)c3n[nH]c(=O)c4ccccc34)c3cnccc23)c1` [Example 110, N-((5-(3-methoxyphenyl)isoquinolin-8-yl)methyl)-4-oxo-3,4-dihydrophthalazine-1-carboxamide]: the IC50 is 0.544 µM.

As to `C=C(c1ccccc1)c1ccc(CNC(=O)Nc2cccc(Cl)c2Cl)c2cnccc12` [Example 158, 1-(2,3-dichlorophenyl)-3-((5-(1-phenylyinyl)isoquinolin-8-yl)methyl)urea], the IC50 worked out at 0.374 µM.

As to `O=C(NCc1ccc(C2=CCNC2)c2ccncc12)Nc1cccc(Cl)c1Cl` [Example 167, 1-(2,3-dichlorophenyl)-3-((5-(2,5-dihydro-1H-pyrrol-3-yl)isoquinolin-8-yl)methyl)urea], the 50% inhibitory concentration (IC50) was 4.42 µM.

For `COc1cccc(-c2ccc(CNC(=O)c3csc(-c4ccc(C(F)(F)F)cc4)n3)c3cnccc23)c1` [Example 78, N-((5-(3-methoxyphenyl)isoquinolin-8-yl)methyl)-2-(4-(trifluoromethyl)phenyl)thiazole-4-carboxamide], the 50% inhibitory concentration (IC50) was found to be 1.25 µM.

Regarding `COc1cccc(-c2ccc(CNC(=O)c3cccc4cccnc34)c3cnccc23)c1` [Example 32, N-((5-(3-methoxyphenyl)isoquinolin-8-yl)methyl)quinoline-8-carboxamide], the IC50 turned out to be 2.01 µM.

Regarding `COc1cccc(-c2ccc(CNC(=O)c3ccc4nccnc4c3)c3cnccc23)c1` [Example 40, N-((5-(3-methoxyphenyl)isoquinolin-8-yl)methyl)quinoxaline-6-carboxamide], the IC50 was found to be 6 µM.

In the case of `COc1ccc([C@@H]2C[C@@H]2C(=O)NCc2ccc(-c3cccc(OC)c3)c3ccncc23)cc1` (relative stereo) [Example 24, (cis)-2-(4-methoxyphenyl)-N-((5-(3-methoxyphenyl)isoquinolin-8-yl)methyl)cyclopropanecarboxamide], the concentration for half-maximal inhibition (IC50) is 0.589 µM.

Take `COc1cccc(-c2ccc(CNC(=O)c3cccc(-n4nc(C)cc4C)c3)c3cnccc23)c1` [Example 68, 3-(3,5-dimethyl-1H-pyrazol-1-yl)-N-((5-(3-methoxyphenyl)isoquinolin-8-yl)methyl)benzamide]: the IC50 is 1.65 µM.

As to `COc1cccc(-c2ccc(CNC(=O)C3(S(=O)(=O)c4ccc(Cl)cc4)CC3)c3cnccc23)c1` [Example 103, 1-((4-chlorophenyl)sulfonyl)-N-((5-(3-methoxyphenyl)isoquinolin-8-yl)methyl)cyclopropanecarboxamide], the IC50 came out at 1.18 µM.

In the case of `COc1cccc(-c2ccc(CNC(=O)Cc3ccc(C(F)(F)F)cc3)c3ncccc23)c1` [Example 150, N-((5-(3-methoxyphenyl)quinolin-8-yl)methyl)-2-(4-(trifluoromethyl)phenyl)acetamide], the IC50 worked out at 0.426 µM.

`COc1cccc(-c2ccc(CNC(=O)C(C)c3ccc(C#N)cc3)c3cnccc23)c1` (stereo not drawn) [Example 136, 2-(4-cyanophenyl)-N-((5-(3-methoxyphenyl)isoquinolin-8-yl)methyl)propanamide]: the half-maximal inhibitory concentration (IC50) turned out to be 0.256 µM.

Consider `COc1cccc(-c2ccc(CNC(=O)c3ncco3)c3cnccc23)c1` [Example 38, N-((5-(3-methoxyphenyl)isoquinolin-8-yl)methyl)oxazole-2-carboxamide], for which the IC50 turned out to be 3.2 µM.
